The source of these data is patent US11312715B2, “Fused ring derivative as A2A receptor inhibitor” (CSTONE PHARMACEUTICALS (SUZHOU) CO., LTD., priority 2017, dated 2022).

Structures can show the parent of a compound that is named as a salt. Where two headings read alike, the source gives them in different places.

Data set [1] concerns mouse colon cancer CT26 cells. The experiment in a line: In vivo pharmacodynamic test, CT26 subcutaneous tumor model, alone or combined with CS1003. Details: species or system BALB/C mice. The method, then:
Experimental materials: BALB/C mice (female); mouse colon cancer CT26 cells (Typical Culture Preservation Commission cell bank, Chinese Academy of Sciences) were cultured in vitro in monolayer with RPMI-1640 medium containing 10% fetal bovine serum in a 37° C., 5% CO2 incubator. Trypsin-EDTA was used for routine digestion and passage. When the cells were in exponential growth phase and the saturation was 80%-90%, the cells were collected and counted.
Compound preparation: Embodiment 19 was weighted and added into the menstruum (10% PEG400+90% (10% Cremophor aqueous solution)) to prepare samples of 2.5 mg/mL, 5 mg/mL and 10 mg/mL respectively. 72 μL CS1003 (PD-1 antibody) solution (25 mg/mL) was taken and 1.728 mL Dulbecco's phosphate buffer (DPBS) was added to prepare a 1 mg/mL solution, then 16.2 mL DPBS was added to prepare a 0.1 mg/mL clear solution.
Experimental operation: the cells were resuspended in Dulbecco's phosphate buffer at a density of 3×10^6 cells/mL. 0.1 mL DPBS (containing 3×10^5 CT26 cells) was subcutaneously inoculated on the right back of each mouse. On the day of inoculation, the mice were randomly divided into groups with 9 mice each group according to the weight of the mice, then administration was started and continued for 20 days. During the whole experiment, the animals were weighed and the animal's health was monitored every day, in case of any special situation, the person in charge of the relevant project would be informed in time and the corresponding records would be made. Tumor diameter was measured twice a week with a vernier caliper. The calculation formula of the tumor volume was: V=0.5×a×b^2, wherein a and b represent the long and short diameters of the tumor respectively.
The antitumor effect of the compounds was evaluated by GI (%) or relative tumor proliferation rate T/C (%). Relative tumor proliferation rate T/C (%)=Vt/VC×100% (Vt: average tumor volume of treatment group; Vc: average tumor volume of negative control group). Vt and VC were the data on the same day. GI (%), tumor inhibition rate. GI (%)=1−Vt/VC×100%.
Statistical analysis was conducted using SPSS software based on the relative tumor volume and tumor weight at the end of the experiment. […] P<0.05 was considered as significant difference.

Data set [2] in a line: PK test of in vivo efficacy: plasma and tumor tissue drug concentration on day 20 of the CT26 study. Details: species or system BALB/C mice. As to conditions: mouse; for concentration at 1 h / concentration at 4 h / Kp at 4 h / Kp at 1 h: oral; for concentration at 1 h / Kp at 1 h: time point 1 h; for concentration at 1 h / concentration at 4 h: tumor tissue; for concentration at 4 h / Kp at 4 h: time point 4 h; for AUC(0-t) / Cmax / Tmax / half-life: plasma, po, day 20; for half-life: read-out: T½ (converted); for Kp at 4 h / Kp at 1 h: tumor tissue / plasma, read-out: T/P* Ratio (tumor tissue / plasma drug concentration). How it is done: The experiment was conducted on the basis of experimental example 3, on the 20th day after administration, blood samples and tissues were collected from each group at different time points (0 h, 0.25 h, 0.5 h, 1 h, 2 h, 4 h, 8 h and 24 h) after administration.

The mark [3] stands for this setting: BALB/C, 50 mg/kg, Group 7, 50 mpk twice a day alone.
[4] abbreviates: BALB/C, 100 mg/kg, Group 3, 100 mpk alone.
Where [5] appears, read: BALB/C, 25 mg/kg, Group 4: 25 mg/kg once a day PO + CS1003 1 mg/kg.
[6] abbreviates: BALB/C, 50 mg/kg, Group 5: 50 mg/kg once a day PO + CS1003 1 mg/kg.
The mark [7] stands for this setting: BALB/C, 50 mg/kg, Group 7: 50 mg/kg twice a day PO alone.
[8] abbreviates: BALB/C, 50 mg/kg, Group 8: 50 mg/kg twice a day PO + CS1003 1 mg/kg.
[9] abbreviates: BALB/C, 100 mg/kg, Group 3: 100 mg/kg once a day PO alone.
[10] abbreviates: BALB/C, 100 mg/kg, Group 6: 100 mg/kg once a day PO + CS1003 1 mg/kg.
Setting [11] is: BALB/c, 50 mpk, Group 5, 50 mpk once a day + CS1003.
The mark [12] stands for this setting: BALB/c, 100 mpk, Group 3, 100 mpk alone.
Where [13] appears, read: BALB/c, 100 mpk, Group 6, 100 mpk + CS1003.

On to `Nc1nc(-c2ccc(F)cc2)c(-c2ccc3ncnn3c2)c2nccnc12` [Embodiment 6 hydrochloride], for which the tumor inhibition rate turned out to be 63.16% in data set [1] (25 mg/kg once a day combined with 1 mg/kg CS1003, day 20, p<0.001); 70.90% in data set [1] (50 mg/kg once a day combined with 1 mg/kg CS1003, day 20, p<0.001); 83.22% in data set [1] (50 mg/kg twice a day in combination with CS1003, day 20, P<0.001); 72.48% in data set [1] (100 mg/kg once a day combined with 1 mg/kg CS1003, day 20, p<0.001). The tumor volume was 312.06+80.17 mm^3 in data set [1] (25 mg/kg once a day intragastric combined with 1 mg/kg CS1003, end of experiment (day 20)); 246.48+62.57 mm^3 in data set [1] (50 mg/kg once a day intragastric combined with 1 mg/kg CS1003, end of experiment (day 20)); 233.10+59.55 mm^3 in data set [1] (100 mg/kg once a day intragastric combined with 1 mg/kg CS1003, end of experiment (day 20)). Besides, the average tumor volume in data set [1] (50 mg/kg twice a day intragastric in combination with CS1003, end of experiment (day 20)) is recorded as 142.17+40.30 mm^3. In addition, the figures for the concentration at 1 h in data set [2] (setting [3]) and in data set [2] (setting [4]) were 3.69 µM and 17.5 µM, respectively. Further, the concentration at 4 h in data set [2] (setting [3]) turned out to be 0.901 µM; in data set [2] (setting [4]) it was 10.6 µM. Besides, the AUC(0-t) (commonly exposure summed from dosing to a finite time, without extrapolation to infinity) in data set [2] (setting [5]) was 23.5 µM·h; in data set [2] (setting [6]) it was 70.6 µM·h; in data set [2] (setting [7]) it was 42 µM·h; in data set [2] (setting [8]), 77.9 µM·h; in data set [2] (setting [9]), 145 µM·h; in data set [2] (setting [10]), 125 µM·h. Further, the Cmax (commonly the peak of the concentration-time curve) came out at 32.2 µM in data set [2] (setting [5]); 57.2 µM in data set [2] (setting [6]); 30.1 µM in data set [2] (setting [7]); 47.1 µM in data set [2] (setting [8]); 114 µM in data set [2] (setting [9]); 132 µM in data set [2] (setting [10]). The Tmax (as a rule, the time at which the peak concentration occurs) was found to be 30 min in data set [2] (setting [5]); 15 min in data set [2] (setting [6]); 30 min in data set [2] (setting [7]); 30 min in data set [2] (setting [8]); 15 min in data set [2] (setting [9]); 15 min in data set [2] (setting [10]). In addition, the half-life in data set [2] (setting [5]) is 65.4 min; in data set [2] (setting [6]) it was 63 min; in data set [2] (setting [8]), 95.4 min; in data set [2] (setting [9]), 48.6 min; in data set [2] (setting [10]) it was 39.3 min. In addition, the Kp at 4 h turned out to be 9.8 in data set [2] (setting [3]); 0.9 in data set [2] (BALB/c, 25 mpk, Group 4, 25 mpk + CS1003); 1.8 in data set [2] (setting [11]); 36 in data set [2] (BALB/c, 50 mpk, Group 8, 50 mpk twice a day + CS1003); 0.9 in data set [2] (setting [12]); 4.2 in data set [2] (setting [13]). The Kp at 1 h in data set [2] (setting [11]) worked out at 0.4; in data set [2] (BALB/c, 50 mpk, Group 7, 50 mpk twice a day alone), 0.7; in data set [2] (setting [12]), 0.6; in data set [2] (setting [13]), 0.5.

B1: CS1003: full-length, fully humanized immunoglobulin G4 (IgG4) monoclonal antibody for PD-1 (antibody, chains of the INN, looked up, V domains shown)
VH: QVQLVQSGAEVKKPGSSVKVSCKASGFTFTTYYISWVRQAPGQGLEYLGYINMGSGGTNYNEKFKGRVTITADKSTSTAYMELSSLRSEDTAVYYCAIIGYFDYWGQGTMVTVSS
VL: DVVMTQSPLSLPVTLGQPASISCRSSQSLLDSDGGTYLYWFQQRPGQSPRRLIYLVSTLGSGVPDRFSGSGSGTDFTLKISRVEAEDVGVYYCMQLTHWPYTFGQGTKLEIK
Regarding B1, the tumor volume in data set [1] (CS1003 1 mg/kg intraperitoneal, Day 7, 10, 13, 16, 20th day after starting administration) was 487.34+109.07 mm^3. The tumor inhibition rate in data set [1] (CS1003 1 mg/kg intraperitoneal, Day 7, 10, 13, 16, 20th day, no significant difference vs control) came out at 42.47%.
